Patent US8084440B2, “Method for improving the fertility of animals” (Desol B.V., priority 2005, dated 2011)

Columns and labels:
humans = settings: single doses of 0.1 g/kg body weight; cited from earlier work
animals = assay: Feed supplementation for improving the fertility of animals (titration of the substance into the feed); assay type: in vivo
From the text: It was found in our studies that phytohormones and beta-glucans appeared to work in a wide range of concentrations for improving the fertility of animals. The optimal concentrations may vary between different species, however, the skilled person will know how to obtain an optimal concentration for a given species, for instance by titration of the desired compound into the animal feed and testing when this would have the optimal effect. The following may serve as guidance in this process. A skilled person will appreciate that the amount of free IAA in the ready to use feed has to be adjusted in order to supply the animal with an effective amount of free IAA. In order to adjust the free IAA concentration in the feed so that a certain daily intake of free IAA is achieved, an estimate has to be made of the feed intake of an animal or animal group. A skilled person is aware of the feed intake of a particular (kind or group of) animal(s). Typically, the feed intake per day is between 0.5 and 10% of the body weight of the animal, with occasional exceptions as high as 20%. Elderly animals tend to eat less and are considered to have a feed intake per day between 0.1 and 5%, typically of 1% of their body mass. […] A particularly good source of such 1,3 and 1,6 beta glucans may be found in preparations of Agaricus blazei murill (ABM) or yeast cell walls. […] This corresponds to approximately 0.1 to 100 mg/kglw/day of 1,3 and 1,6 beta glucans. […] The effect of improving the fertility of animals was also observed when the feed of animals was supplemented with Gibberelin or Gibberellic acid.

For O=C(O)Cc1c[nH]c2ccccc12 [free IAA, indole-3-acetic acid], the “toxicity of single doses” value (humans) is given as “non-toxic”, the fertility of animals (animals; feed supplemented with free IAA instead of conjugated IAA) is given as “Particularly good results” and the fertility of animals (animals; feeding with 0.4 mg/kglw/day) is given as “very effective”. The fertility of animals (animals; provided in feed in the range of 0.004 and 40 mg/kglw/day) was “improved”.
In the case of 1,3 and 1,6 beta glucans, the fertility of animals (animals; fed with 1 to 10 mg/kglw/day) is reported as “Excellent results”.
In the case of C=C1C[C@]23C[C@@]1(O)CC[C@H]2[C@@]12C=C[C@H](O)[C@@](C)(C(=O)O1)[C@H]2[C@@H]3C(=O)O [Gibberellic acid], the fertility of animals (animals; between 0.01 and 0.1 mg/kglw/day, such as 0.04 mg/kglw/day) is reported as “Optimal results” and the fertility of animals (animals; range of 0.004 and 0.4 mg/kglw/day) is reported as “particularly pronounced”.
